The structures appear in SMILES notation. “And” between values parts separate entries of the source, which are not always exact repeats. Identical values can stand only once. Inconclusive results and toxic doses are left out.

From PubChem BioAssay AID248 (DTP/NCI, 2004) come the findings set out here.

In this test the test system is L1210 leukemia ip in BDF1 mice, survival T/C. In words: NCI In Vivo Anticancer Drug Screen. Data for tumor model L1210 Leukemia (intraperitoneal) in B6D2F1 (BDF1) mice. The conditions noted are these: endpoint: mean survival time, higher = longer survival. Summed up:
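Tumor was transplanted into mice, which were then dosed with test compound or vehicle alone. Survival was recorded for each group, and the treated figure was expressed relative to the control figure.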

The mark [1] stands for this setting: dose: 25.0 mg/kg/injection, schedule: Q01DX009 (ip), vehicle: Klucel (hydroxypropylcellulose) (HPC).
[2] abbreviates: dose: 25.0 mg/kg/injection, schedule: Q04DX003 (ip), vehicle: Klucel (hydroxypropylcellulose) (HPC).
Where [3] appears, read: dose: 50.0 mg/kg/injection, schedule: Q01DX009 (ip), vehicle: Klucel (hydroxypropylcellulose) (HPC).
Setting [4] is: dose: 50.0 mg/kg/injection, schedule: Q04DX003 (ip), vehicle: Klucel (hydroxypropylcellulose) (HPC).
Where [5] appears, read: dose: 100.0 mg/kg/injection, schedule: Q04DX003 (ip), vehicle: Klucel (hydroxypropylcellulose) (HPC).
The mark [6] stands for this setting: dose: 200.0 mg/kg/injection, schedule: Q04DX003 (ip), vehicle: Klucel (hydroxypropylcellulose) (HPC).
[7] abbreviates: dose: 100.0 mg/kg/injection, schedule: Q01DX009 (ip), vehicle: Klucel (hydroxypropylcellulose) (HPC).
The mark [8] stands for this setting: dose: 200.0 mg/kg/injection, schedule: Q01DX009 (ip), vehicle: Klucel (hydroxypropylcellulose) (HPC).
[9] abbreviates: dose: 100.0 mg/kg/injection, schedule: Q04DX003 (ip), vehicle: saline.
Setting [10] is: dose: 200.0 mg/kg/injection, schedule: Q04DX003 (ip), vehicle: saline.
The mark [11] stands for this setting: dose: 400.0 mg/kg/injection, schedule: Q04DX003 (ip), vehicle: saline.
The mark [12] stands for this setting: dose: 100.0 mg/kg/injection, schedule: Q01DX001 (ip), vehicle: other.
Setting [13] is: dose: 200.0 mg/kg/injection, schedule: Q01DX001 (ip), vehicle: other.
Where [14] appears, read: dose: 400.0 mg/kg/injection, schedule: Q01DX001 (ip), vehicle: other.

Regarding `CC(C)(C)C1CCC(NC(=O)C(Cl)(Cl)Cl)CC1` (configuration not stated), the T/C was 100 % of control (dose: 6.0 mg/kg/injection, schedule: Q01DX009 (ip), vehicle: Klucel (hydroxypropylcellulose) (HPC)); 107 % of control (dose: 12.0 mg/kg/injection, schedule: Q01DX009 (ip), vehicle: Klucel (hydroxypropylcellulose) (HPC)); 96 % of control and 105 % of control under setting [1]; 94 % of control under setting [2]; 86 % of control under setting [3]; 97 % of control under setting [4]. Moreover, under setting [5], the T/C was 96 % of control.
As to `C1CN(SSN2CCOCC2)CCO1`, the T/C is, setting by setting: (dose: 12.5 mg/kg/injection, schedule: Q04DX003 (ip), vehicle: Klucel (hydroxypropylcellulose) (HPC)) 89 % of control; under setting [2], 110 % of control; under setting [4], 89 % of control; under setting [6], 102 % of control.
As for `CN1CN(c2ccccc2)CSC1=S`, the T/C is, setting by setting: under setting [3], 102 % of control; under setting [7], 107 % of control; under setting [5], 94 % of control; under setting [8], 95 % of control; under setting [6], 89 % of control.
Turning to `NNc1ncccn1`, the T/C is 102 % of control (dose: 5.0 mg/kg/injection, schedule: Q01DX001 (ip), vehicle: saline); 109 % of control (dose: 10.0 mg/kg/injection, schedule: Q01DX001 (ip), vehicle: saline); 113 % of control (dose: 20.0 mg/kg/injection, schedule: Q01DX001 (ip), vehicle: saline).
Consider `O=Cc1ccc(O)cn1`, for which the T/C under setting [9] was 92 % of control, the T/C under setting [10] was 87 % of control and the T/C under setting [11] was 92 % of control.
For `NC(Cc1ccc(O)cc1)C(=O)N/N=C/c1ccc(N(CCCl)CCCl)cc1` (configuration not stated), the T/C is, setting by setting: under setting [1], 101 % of control; under setting [3], 113 % of control; under setting [7], 106 % of control; under setting [5], 107 % of control; under setting [6], 102 % of control.
For `CN1CCC(=C(C#N)C#N)CC1`, under setting [9], the T/C is 91 % of control.
Take `O=C(N/N=C/C=C/c1ccccc1)c1ccco1`: the T/C runs as follows: under setting [12], 87 % of control; under setting [13], 87 % of control; under setting [14], 93 % of control.
Regarding `O=C(O)C1CCCS1(=O)=O` (configuration not stated), the T/C by setting is: under setting [9], 96 % of control; under setting [10], 94 % of control; under setting [11], 88 % of control.
`COC1OC2COc3ccccc3OC2C2C1N2C(c1ccccc1)N1C2C(OC)OC3COc4ccccc4OC3C21` (configuration not stated): the T/C (dose: 100.0 mg/kg/injection, schedule: Q04DX002 (ip), vehicle: Klucel (hydroxypropylcellulose) (HPC)) was 93 % of control; the T/C (dose: 200.0 mg/kg/injection, schedule: Q04DX002 (ip), vehicle: Klucel (hydroxypropylcellulose) (HPC)) was 100 % of control; the T/C (dose: 400.0 mg/kg/injection, schedule: Q04DX002 (ip), vehicle: Klucel (hydroxypropylcellulose) (HPC)) is 107 % of control.
For the molecule `N#CC(Nc1ccccc1)c1ccccc1` (configuration not stated), the T/C is, setting by setting: under setting [7], 91 % of control; under setting [5], 97 % of control; under setting [8], 96 % of control; under setting [6], 95 % of control; (dose: 400.0 mg/kg/injection, schedule: Q04DX003 (ip), vehicle: Klucel (hydroxypropylcellulose) (HPC)) 104 % of control.
For `CC(C)N(C(=O)Nc1cccc2ccccc12)c1ccccc1`, the T/C (dose: 100.0 mg/kg/injection, schedule: Q01DX009 (ip), vehicle: gum acacia) is 97 % of control; the T/C (dose: 100.0 mg/kg/injection, schedule: Q04DX003 (ip), vehicle: gum acacia) was 110 % of control; the T/C (dose: 200.0 mg/kg/injection, schedule: Q01DX009 (ip), vehicle: gum acacia) is 96 % of control; the T/C (dose: 200.0 mg/kg/injection, schedule: Q04DX003 (ip), vehicle: gum acacia) was 102 % of control; the T/C (dose: 400.0 mg/kg/injection, schedule: Q01DX009 (ip), vehicle: gum acacia) was 99 % of control; the T/C (dose: 400.0 mg/kg/injection, schedule: Q04DX003 (ip), vehicle: gum acacia) was 104 % of control.
Turning to `c1ccc2cc(CCSSCCc3ccc4ccccc4c3)ccc2c1`, the T/C (dose: 200.0 mg/kg/injection, schedule: Q01DX001 (ip), vehicle: saline) was 87 % of control.
As for `CCOC(=O)Cc1c[nH]c2ccc(N(CCCl)CCCl)cc12`, the T/C was 121 % of control (dose: 0.55 mg/kg/injection, schedule: Q01DX009 (ip), vehicle: carboxymethylcellulose (CMC)); 151 % of control (dose: 1.5 mg/kg/injection, schedule: Q01DX009 (ip), vehicle: carboxymethylcellulose (CMC)); 152 % of control (dose: 2.2 mg/kg/injection, schedule: Q01DX009 (ip), vehicle: other); 160 % of control and 177 % of control (dose: 3.1 mg/kg/injection, schedule: Q01DX009 (ip), vehicle: carboxymethylcellulose (CMC)); 152 % of control (dose: 3.4 mg/kg/injection, schedule: Q01DX009 (ip), vehicle: other); 168 % of control (dose: 4.8 mg/kg/injection, schedule: Q01DX009 (ip), vehicle: carboxymethylcellulose (CMC)). For the same molecule, the T/C was 169 % of control (dose: 5.0 mg/kg/injection, schedule: Q01DX009 (ip), vehicle: other); 157 % of control (dose: 7.0 mg/kg/injection, schedule: Q01DX009 (ip), vehicle: carboxymethylcellulose (CMC)); 176 % of control (dose: 7.0 mg/kg/injection, schedule: Q01DX009 (ip), vehicle: other); 120 % of control (dose: 7.3 mg/kg/injection, schedule: Q01DX001 (ip), vehicle: carboxymethylcellulose (CMC)); 176 % of control (dose: 7.3 mg/kg/injection, schedule: Q01DX009 (ip), vehicle: carboxymethylcellulose (CMC)); 124 % of control (dose: 11.0 mg/kg/injection, schedule: Q01DX001 (ip), vehicle: carboxymethylcellulose (CMC)). For the same molecule, the T/C was 168 % of control (dose: 11.0 mg/kg/injection, schedule: Q01DX009 (ip), vehicle: carboxymethylcellulose (CMC)); 97 % of control (dose: 11.1 mg/kg/injection, schedule: Q01DX009 (ip), vehicle: carboxymethylcellulose (CMC)); 121 % of control (dose: 16.6 mg/kg/injection, schedule: Q01DX001 (ip), vehicle: carboxymethylcellulose (CMC)); 166 % of control and 225 % of control (dose: 25.0 mg/kg/injection, schedule: Q01DX001 (ip), vehicle: carboxymethylcellulose (CMC)); 94 % of control (dose: 37.5 mg/kg/injection, schedule: Q01DX001 (ip), vehicle: carboxymethylcellulose (CMC)).
Take `CC(=O)Oc1cn(C)c2c1C(=O)CC(C)(C)C2`: the T/C (dose: 75.0 mg/kg/injection, schedule: Q04DX002 (ip), vehicle: Klucel (hydroxypropylcellulose) (HPC)) was 94 % of control; the T/C (dose: 150.0 mg/kg/injection, schedule: Q04DX002 (ip), vehicle: Klucel (hydroxypropylcellulose) (HPC)) was 105 % of control; the T/C (dose: 300.0 mg/kg/injection, schedule: Q04DX002 (ip), vehicle: Klucel (hydroxypropylcellulose) (HPC)) is 97 % of control.
As to `S=c1nc[nH]c2c1ncn2/N=C/c1ccccc1`, the T/C is 96 % of control under setting [12], 90 % of control under setting [13] and 96 % of control under setting [14].
For `O=S(=O)(C1=Cc2cccc3cccc1c23)c1ccccc1`, the T/C is, setting by setting: (dose: 100.0 mg/kg/injection, schedule: Q01DX001 (ip), vehicle: acetone) 101 % of control; (dose: 100.0 mg/kg/injection, schedule: Q01DX009 (ip), vehicle: saline) 94 % of control; (dose: 100.0 mg/kg/injection, schedule: Q04DX003 (ip), vehicle: acetone) 105 % of control; (dose: 200.0 mg/kg/injection, schedule: Q01DX001 (ip), vehicle: acetone) 92 % of control; (dose: 200.0 mg/kg/injection, schedule: Q01DX009 (ip), vehicle: saline) 96 % of control; (dose: 200.0 mg/kg/injection, schedule: Q04DX003 (ip), vehicle: acetone) 105 % of control. Also, the T/C was 93 % of control (dose: 400.0 mg/kg/injection, schedule: Q01DX001 (ip), vehicle: acetone); 103 % of control (dose: 400.0 mg/kg/injection, schedule: Q01DX009 (ip), vehicle: saline); 97 % of control (dose: 400.0 mg/kg/injection, schedule: Q04DX003 (ip), vehicle: acetone).
For the molecule `Clc1c(Cl)c(Cl)c2n[nH]nc2c1Cl`, for the setting “dose: 75.0 mg/kg/injection, schedule: Q01DX001 (ip), vehicle: saline”, the T/C was 96 % of control.
